# According to patent US20250009896A1, “SUPR[…] BASED VIRAL […] CAPTURE FOR PREVENTION AND THERAPY OF VIRAL INFECTION” (The Johns Hopkins University, priority 2023, published 2025):
# Residues, ends and D or L forms follow the SMILES beside them. *: point of attachment. Lauroyl = CCCCCCCCCCCC(=O)*
# Experiments:
# [1] = Critical micelle concentration by Nile Red assay; format: physicochemical; settings: MilliQ water pH=7.4, Nile Red assay
# Procedure: Using a Nile Red assay, the CMC of each PA monomer (Filler and Ligand) and their co-assembly (1:1 molar ratio) was determined. Nile Red dye intensely fluoresces within hydrophobic environments but is strongly quenched and red-shifted in aqueous environments. Thus, when mixed with PAs at a concentration exceeding the CMC, Nile Red will embed within the hydrophobic core and emit a strong fluorescence signal. A 500 μM stock solution of Nile Red was prepared in acetone, and 10 μL of the stock was added to microcentrifuge tubes. Acetone was evaporated off in the dark. Solutions of the samples (500 μL, water) were added to the tubes at varied concentrations and were aged for 2 days in the dark at room temperature. Samples were added to a quartz micro fluorometer cell (0.7 mL, 10 mm pathlength, Starna Cells, Atascadero, CA), and at an excitation wavelength of 550 nm, five parallel emission spectra were recorded at a wavelength range of 580 to 720 nm on a Duetta UV-Vis-NIR spectrofluorometer (HORIBA Scientific). The emission intensity ratio for each run at 635 nm (emission maximum of Nile Red in a hydrophobic environment) to 660 nm (emission maximum of Nile Red in a hydrophilic environment) was plotted against tested concentrations to obtain a transition curve from which CMC was determined.
# [2] = biological target: Recombinant human angiotensin-converting enzyme 2 (ACE2) (Homo sapiens, UniProt Q9BYF1); assay: ACE2 activity assay with fluorogenic peptide substrate Mca-YVADAPK(Dnp)-OH; settings: 50 nM ACE2; 1 mM Filler or 50 μM Ligand
# SARS-CoV PsV = format: cell-based
# VSVG PsV = format: cell-based, vesicular stomatitis virus
# SARS-CoV-2 PsV = format: cell-based; settings: 0.5 nM ACE2 dose
# ACE2 [3] = biological target: T1, ACE2 (Homo sapiens, UniProt Q9BYF1); settings: ACE2 inhibitor; cited from earlier work
# ACE2 [4] = biological target: T1, ACE2; settings: cited from earlier work
# T1 sequence (Q9BYF1 18-805): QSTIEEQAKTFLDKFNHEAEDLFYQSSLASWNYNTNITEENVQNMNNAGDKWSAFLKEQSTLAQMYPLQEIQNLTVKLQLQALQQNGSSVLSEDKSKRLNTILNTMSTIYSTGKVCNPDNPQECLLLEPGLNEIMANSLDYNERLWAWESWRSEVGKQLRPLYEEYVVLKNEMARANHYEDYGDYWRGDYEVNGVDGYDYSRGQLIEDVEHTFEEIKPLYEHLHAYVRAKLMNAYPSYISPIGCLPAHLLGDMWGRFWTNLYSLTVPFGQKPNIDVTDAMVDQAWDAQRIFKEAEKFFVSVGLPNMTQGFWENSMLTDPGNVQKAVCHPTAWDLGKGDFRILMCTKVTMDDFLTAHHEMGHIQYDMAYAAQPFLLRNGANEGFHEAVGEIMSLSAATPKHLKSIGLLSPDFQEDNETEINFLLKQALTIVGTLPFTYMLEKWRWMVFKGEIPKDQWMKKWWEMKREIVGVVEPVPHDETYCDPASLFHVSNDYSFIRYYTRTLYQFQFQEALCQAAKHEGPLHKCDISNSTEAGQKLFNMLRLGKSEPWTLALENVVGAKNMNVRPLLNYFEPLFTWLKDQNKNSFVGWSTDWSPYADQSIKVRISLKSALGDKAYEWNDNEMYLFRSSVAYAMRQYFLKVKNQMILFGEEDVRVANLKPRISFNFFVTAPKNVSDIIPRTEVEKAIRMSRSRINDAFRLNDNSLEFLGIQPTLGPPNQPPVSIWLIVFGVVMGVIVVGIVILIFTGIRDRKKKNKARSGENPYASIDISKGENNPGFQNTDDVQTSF
# Sequence of Recombinant human angiotensin-converting enzyme 2 (ACE2) (Q9BYF1 18-740): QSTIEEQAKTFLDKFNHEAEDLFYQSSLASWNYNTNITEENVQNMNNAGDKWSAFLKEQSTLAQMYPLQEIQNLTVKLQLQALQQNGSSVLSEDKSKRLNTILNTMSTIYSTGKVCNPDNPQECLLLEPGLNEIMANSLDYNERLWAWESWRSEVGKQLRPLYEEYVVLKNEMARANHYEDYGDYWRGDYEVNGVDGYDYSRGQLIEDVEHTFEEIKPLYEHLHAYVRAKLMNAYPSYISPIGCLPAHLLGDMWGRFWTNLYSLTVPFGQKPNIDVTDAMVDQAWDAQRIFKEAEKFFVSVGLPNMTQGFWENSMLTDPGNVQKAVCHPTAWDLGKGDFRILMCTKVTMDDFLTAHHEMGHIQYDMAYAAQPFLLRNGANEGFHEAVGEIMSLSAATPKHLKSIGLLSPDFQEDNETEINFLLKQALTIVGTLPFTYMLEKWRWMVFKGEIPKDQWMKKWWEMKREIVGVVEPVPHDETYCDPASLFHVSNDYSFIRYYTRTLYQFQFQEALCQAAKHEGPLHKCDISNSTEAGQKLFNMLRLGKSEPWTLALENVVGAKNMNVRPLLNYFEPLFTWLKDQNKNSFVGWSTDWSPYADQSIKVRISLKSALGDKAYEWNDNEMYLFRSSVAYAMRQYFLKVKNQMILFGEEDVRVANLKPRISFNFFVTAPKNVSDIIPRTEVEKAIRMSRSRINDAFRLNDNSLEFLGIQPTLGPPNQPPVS
compound,measurement,setting,value
CCCCCCCCCCCC(=O)N[C@H](C(=O)N[C@H](C(=O)N[C@H](C(=O)NCC(=O)N[C@@H](CCC(=O)O)C(=O)N[C@@H](CCC(=O)O)C(N)=O)C(C)C)C(C)C)C(C)C [Filler] (Lauroyl-VVVGEE-NH2),critical micelle concentration (CMC),[1],around 2.9 μM
same,impact on ACE2 activity / initial velocity,[2],slight impact on ACE2 activity
"ACE2: Recombinant human angiotensin-converting enzyme 2 (ACE2) protein (carrier-free), R&D Systems",SARS-CoV PsV infection inhibition,SARS-CoV PsV,strongly inhibited
same,VSVG PsV infection inhibition (dose-dependent strong inhibition trend),VSVG PsV,not observed
same,incubation time at which inhibition becomes identical to / indistinguishable from empty filaments,SARS-CoV-2 PsV,≤ 6 h
non-cleavable peptidic ACE2 inhibitor GDYSHCSPLRYYPWWKCTYPDPEGGG (SEQ ID NO: 5/16) [DX600],Ki,ACE2 [3],2.8 nM
same,Kd,ACE2 [4],10.1 nM
